# Where two headings read alike, the source gives them in different places.
# Columns and labels:
# [1] = test system: ET-1-induced contraction of rat intact intrapulmonary arterial rings; test: Ex-vivo vascular function assay: relaxation of ET-1-contracted intact rat intrapulmonary arterial rings; format: cell-based; details: 8 nM ET-1, 10 nM ambrisentan, 30 nM tadalafil, alone or in combination, mean±SEM
# Description: The selective type-A endothelin receptor antagonist, ambrisentan ([…]®), and the phosphodiesterase type 5 inhibitor, tadalafil ([…]®), are currently used to treat pulmonary arterial hypertension. Isolated rat intact intrapulmonary arterial rings contracted with 8 nM endothelin-1 (ET-1) were relaxed by 10 nM ambrisentan (from Gilead Sciences, Inc.) and 30 nM tadalafil (from Sequoia Research Products Ltd. Pangbourne, UK) by 30±13% (mean±SEM, n=3) and 12±5% (n=3), respectively, whereas both drugs in combination relaxed the intact intrapulmonary arterial rings by […] (FIG. 1, n=3, P<0.01 vs. mono-administration of ambrisentan or tadalafil). Intrapulmonary arteries (200-500 μm) and aortas were isolated from Sprague Dawley rats (300-320 g) and cut into 1-2 mm rings. Rings were mounted in a myograph and constricted with a submaximal concentration (8 nM) of ET-1. Ambrisentan, Bosentan, Macitentan and Tadalafil alone and in combination were evaluated in ET-constricted rings. Isolated rat intact intrapulmonary arterial rings contracted with 8 nM endothelin-1 (ET-1) were relaxed by 10 nM ambrisentan and 30 nM tadalafil by 29±1% (mean±SEM, n=4) and 22±2% (n=4), respectively, whereas both drugs in combination relaxed the intact intrapulmonary arterial rings by 85±3% (FIG. 2, n=4, P<0.01 vs. mono-administration of ambrisentan or tadalafil).
# ETA receptor = biological target: T1, ETA receptor (Homo sapiens, UniProt P25101); details: read-out: affinity for the ETA receptor; cited from earlier work
# T1 sequence (P25101 21-427): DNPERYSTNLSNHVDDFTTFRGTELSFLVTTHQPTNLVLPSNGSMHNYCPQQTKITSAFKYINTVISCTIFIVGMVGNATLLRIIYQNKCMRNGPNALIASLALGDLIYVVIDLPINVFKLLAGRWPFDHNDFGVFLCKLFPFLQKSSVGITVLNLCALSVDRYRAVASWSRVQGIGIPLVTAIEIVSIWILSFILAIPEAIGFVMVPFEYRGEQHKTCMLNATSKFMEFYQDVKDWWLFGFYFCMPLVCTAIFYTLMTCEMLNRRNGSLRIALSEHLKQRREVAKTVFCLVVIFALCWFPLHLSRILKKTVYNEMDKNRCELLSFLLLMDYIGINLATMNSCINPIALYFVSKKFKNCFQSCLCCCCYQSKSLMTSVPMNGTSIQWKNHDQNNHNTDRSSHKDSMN
# [2] = test system: ET-1-induced contraction of endothelium-denuded aortic rings; test: ET-1-induced contraction of endothelium-denuded aortic rings; format: cell-based, rat; details: 10 nM ambrisentan, n=4
# Description: (§1) Intrapulmonary arteries (200-500 μm) and aortas were isolated from Sprague Dawley rats (300-320 g) and cut into 1-2 mm rings. Rings were mounted in a myograph and constricted with a submaximal concentration (8 nM) of ET-1. Ambrisentan, Bosentan, Macitentan and Tadalafil alone and in combination were evaluated in ET-constricted rings.
# [3] = Free plasma concentration in the rat PAH study; format: in vivo; details: Sprague-Dawley, read-out: free or unbounded plasma concentration
# Description: (§2) Rats were dosed with vehicle (0.5% hydroxypropyl methylcellulose (HPMC), 0.2% Tween 80, and 0.9% benzyl alcohol in water), AMB or TAD (quaque die) beginning the day they were placed in chambers. Plasma was collected when animals were terminated.
# The free or unbounded plasma concentration for 10 mpk AMB dosing was about 104 nM in both cases. The free or unbounded plasma concentrations of TAD was about 24 nM when administered separately, or about 26 nM when administered with AMB, whether 1 mpk or 10 mpk.
# [4] = test system: ET-1-induced contraction of rat intact thoracic aortic rings; test: Ex-vivo vascular function assay: relaxation of ET-1-contracted intact rat thoracic aortic rings; format: cell-based; details: for relaxation of intact thoracic aortic rings in the presence of ET-1: Example 1, FIG. 1, 8 nM ET-1, 10 nM ambrisentan, 30 nM tadalafil, alone or in combination, n=3; for IC50: Rattus norvegicus, read-out: IC50 to relax ET-1 constricted aortic rings
# Description: as §1, with “The combination of both 10 nM ambrisentan and 30 nM tadalafil relaxed the ET-1-induced contraction of the intact thoracic aortic rings by 81±7% (FIG. 1, n=3; P<0.01 vs. mono-administration of ambrisentan or tadalafil). […] Intrapulmonary” for “Intrapulmonary”
# [5] = test system: hypoxia-induced mean pulmonary arterial pressure (mPAP) in male SD rats; test: Hypoxia-induced pulmonary arterial hypertension (PAH) animal model; format: in vivo; details: 3 wks hypoxia, rat
# Description: as §2, with “Male SD Rats (225-250 g) were housed in chambers under normoxic (sea level) or hypoxic (10% oxygen) conditions for 3 weeks. Rats” for “Rats”, “terminated. [table]” for “terminated.”
# [6] = test system: ET-1-induced contraction of endothelium-denuded pulmonary arterial rings; test: ET-1-induced contraction of endothelium-denuded pulmonary arterial rings; format: cell-based, rat; details: FIG. 5, 10 nM ambrisentan, 30 nM tadalafil, n=4
# Description: as §1
# [7] = Example 2, FIG. 2, 100 nM bosentan, 30 nM macitentan
Compound,"relaxation of intact intrapulmonary arterial rings contracted with ET-1 ([1]; Example 1, FIG. 1, n=3) [%]","relaxation of intact intrapulmonary arterial rings contracted with ET-1 [1, 7] [%]",Ki (ETA receptor) [nM],reduction of contraction induced by ET-1 [2],"concentration at 3 weeks ([3]; 1 mpk, AMB 1 mpk, administered separately) [nM]","concentration at 3 weeks ([3]; AMB 1 mpk, administered along with TAD) [nM]","concentration at 3 weeks ([3]; AMB 10 mpk, separately or with TAD (both cases)) [nM]",relaxation of intact thoracic aortic rings in the presence of ET-1 [4] [%],inhibition of PAP (mPAP±SEM) ([5]; 1 mpk AMB once daily) [%],inhibition of PAP (mPAP±SEM) ([5]; 10 mpk AMB once daily) [%],reduction of contraction induced by ET-1 [6],"concentration at 3 weeks ([3]; 10 mpk, TAD (10 mpk), administered separately) [nM]","concentration at 3 weeks ([3]; TAD (10 mpk), administered with AMB, 1 mpk or 10 mpk) [nM]",IC50 ([4]; in the presence of 10 nM ambrisentan) [nM],IC50 ([4]; tadalafil alone) [nM],inhibition of PAP (mPAP±SEM) ([5]; 10 mpk TAD once daily) [%]
"COC(c1ccccc1)(c1ccccc1)[C@H](Oc1nc(C)cc(C)n1)C(=O)O [ambrisentan, (2S)-2-[(4,6-dimethylpyrimidin-2-yl)oxy]-3-methoxy-3,3-diphenylpropanoic acid]",30±13,29±1,~0.012,26±7%,~17,~13,~104,32±3,28.4±1.1,42.1±2.4,23±4%,–,–,–,–,–
COc1ccccc1Oc1c(NS(=O)(=O)c2ccc(C(C)(C)C)cc2)nc(-c2ncccn2)nc1OCCO [bosentan],–,25±1,–,–,–,–,–,–,–,–,–,–,–,–,–,–
CCCNS(=O)(=O)Nc1ncnc(OCCOc2ncc(Br)cn2)c1-c1ccc(Br)cc1 [macitentan],–,31±2,–,–,–,–,–,–,–,–,–,–,–,–,–,–
"CN1CC(=O)N2[C@H](c3ccc4c(c3)OCO4)c3[nH]c4ccccc4c3C[C@@H]2C1=O [tadalafil, (6R-trans)-6-(1,3-benzodioxol-5-yl)-2,3,6,7,12,12a-hexahydro-2-methyl-pyrazino [1′, 2′:1,6] pyrido[3,4-b]indole-1,4-dione]",12±5,22±2,–,failed to inhibit contraction,–,–,–,16±4,–,–,failed to inhibit contraction,~24,~26,16,79,23.2±1.3
